Data taken from article PMC7594083, “Preclinical Evaluation of the GRPR-Targeting Antagonist RM26 Conjugated to the Albumin-Binding Domain for GRPR-Targeting Therapy of Cancer” (Pharmaceutics, 2020).
Where two headings read alike, the source gives them in different places. Values belong to the compound of their own block, whether it stands above or below them.

Tests used:
[1] = target: gastrin-releasing peptide receptor (human (endogenous in PC-3)) (UniProt P30550); experiment: radioligand binding
Chain of gastrin-releasing peptide receptor (human (endogenous in PC-3)) (P30550 whole entry): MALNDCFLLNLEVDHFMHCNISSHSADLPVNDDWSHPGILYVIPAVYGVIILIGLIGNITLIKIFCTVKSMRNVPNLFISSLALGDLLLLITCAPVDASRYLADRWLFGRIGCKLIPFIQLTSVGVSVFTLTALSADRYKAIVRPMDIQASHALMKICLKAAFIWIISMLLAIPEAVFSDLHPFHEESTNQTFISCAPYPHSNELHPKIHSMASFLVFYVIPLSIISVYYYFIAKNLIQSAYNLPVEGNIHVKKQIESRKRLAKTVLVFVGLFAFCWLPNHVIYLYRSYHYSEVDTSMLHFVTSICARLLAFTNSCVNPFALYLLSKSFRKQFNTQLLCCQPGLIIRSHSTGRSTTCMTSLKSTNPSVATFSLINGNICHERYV

[2] = target: GRPR (Homo sapiens, UniProt P30550); experiment: Competitive binding (IC50) assay on PC-3 cells; design: host or cells: PC-3 prostate carcinoma cells; details: vs 1 nM [^111In]In-NOTA-PEG4-RM26, PC-3 cells, 0-10 µM, 4 °C, 5 h, n = 3, SD
Chain of GRPR (P30550 whole entry): as above
Experimental: Prostate carcinoma cell line PC-3 (GRPR positive) was purchased from ATCC, Manassas, VA, USA. […] PC-3 cells (5 × 10^5 cells/well) were plated on 12-well plates one day before the competitive binding assays. […] On the day of the experiment, the cells were washed, and 1 nM of [^111In]In-NOTA-PEG4-RM26 was added to each well along with a series of concentrations ranging between 0-10 μM of the competing conjugate. The dishes were incubated at 4 °C for 5 h. The cells were then washed and treated with trypsin-EDTA until cell detachment. The cells were collected, and the radioactivity content was measured using a gamma counter.

[3] = tested on: PC-3 xenografts; experiment: Biodistribution in mice bearing PC-3 xenografts; assay type: in vivo, mice (BALB/c nu/nu female)
Experimental: (§1) Instant thin-layer chromatography (ITLC) results were analyzed using Cyclone® Plus (PerkinElmer). […] BALB/c nu/nu female mice were implanted subcutaneously with PC-3 cells in PBS (6.5 × 10^6 cells/mouse) on the hind leg. […] A group of four mice was used per data point. […] After euthanization, the organs of interest were collected and weighed, and the radioactivity content was measured on a gamma counter.

[4] = Thermal melting by circular dichroism; assay type: physicochemical; details: pH 7.4
[5] = Biodistribution in mice bearing PC-3 xenografts; assay type: in vivo, mice (BALB/c nu/nu female); details: mouse, in vivo, iv, 40 pmol, 40 pmol i.v., 1 h pi, 4 mice, SD; read-out: activity concentration in blood 1 h pi
Experimental: as §1

[6] = Circular dichroism, secondary structure/helicity; assay type: physicochemical
Experimental: The secondary structures of ABD035, DOTA-ABD-Cl and DOTA-ABD-RM26 were determined by circular dichroism spectroscopy (Chirascan, Applied Photophysics, Leatherhead, UK). All CD spectra were obtained at 20 °C using a protein concentration of 0.2 mg/mL in 20 mM potassium phosphate buffer with 100 mM KCl pH 7.4. To estimate the percentage of helicity in each construct, the measured ellipticity (θobs) was first converted to the mean residue ellipticity (MRE) using the following formula MRE = θobs/10 × l × C × n, where l is the pathlength in cm, C is the peptide concentration in the molar, and n is the number of residues in each construct. From the mean residue ellipticity at 222 nm, MRE222, the fraction helix, FH, was calculated using the following formula, FH = (MRE222 − [θ]C)/([θ]H − [θ]C). [θ]H and [θ]C are given by [θ]H = 40,000 × (1 − (2.5/n) + 100 × T, and [θ]C = 640 − 45 × T. T is given in °C, here 20, and n is the number of residues in each construct (Scholtz 1991).

IC50 [1]: 49 nM
Compound: DOTA-ABD-RM26 bound to human serum albumin (from UniProt P02768 25-609) (complex)

IC50 [1]: 30 nM
Compound: DOTA-ABD-RM26 (designed binder)

Compound: CC[C@H](C)[C@H](NC(=O)[C@H](Cc1c[nH]cn1)NC(=O)[C@H](CC(C)C)NC(=O)[C@H](CCCCN)NC(=O)[C@H](CC(C)C)NC(=O)[C@H](C)NC(=O)[C@H](CCC(=O)O)NC(=O)[C@@H](NC(=O)CNC(=O)[C@H](CCC(=O)O)NC(=O)[C@@H](NC(=O)[C@@H](NC(=O)[C@H](CCCCN)NC(=O)[C@H](C)NC(=O)[C@H](CCCCN)NC(=O)[C@H](CC(N)=O)NC(=O)[C@@H](NC(=O)[C@H](CC(C)C)NC(=O)[C@H](CCCNC(=N)N)NC(=O)[C@H](CCCCN)NC(=O)[C@H](Cc1ccc(O)cc1)NC(=O)[C@H](Cc1ccccc1)NC(=O)[C@H](CC(=O)O)NC(=O)[C@H](CO)NC(=O)[C@@H](NC(=O)CNC(=O)[C@H](Cc1ccc(O)cc1)NC(=O)[C@H](CCCCNC(=O)CSCCC(=O)NCCOCCOCCOCCOCCC(=O)N[C@H](Cc1ccccc1)C(=O)N[C@@H](CCC(N)=O)C(=O)N[C@@H](Cc1c[nH]c2ccccc12)C(=O)N[C@@H](C)C(=O)N[C@H](C(=O)NCC(=O)N[C@@H](Cc1c[nH]cn1)C(=O)N[C@@H](CC(C)C)[C@@H](O)CC(=O)N[C@@H](CC(C)C)C(N)=O)C(C)C)NC(=O)[C@H](CC(=O)O)NC(=O)[C@H](CC(C)C)NC(=O)[C@H](CCC(=O)O)NC(=O)[C@H](CCCNC(=N)N)NC(=O)[C@H](CC(N)=O)NC(=O)[C@H](C)NC(=O)[C@H](CC(C)C)NC(=O)[C@@H](NC(=O)[C@H](CCCCN)NC(=O)[C@H](C)NC(=O)[C@H](CCC(=O)O)NC(=O)[C@H](C)NC(=O)[C@H](CC(C)C)NC(=O)CN1CCN(CC(=O)O)CCN(CC(=O)O)CCN(CC(=O)O)CC1)C(C)C)C(C)C)[C@@H](C)CC)[C@@H](C)O)C(C)C)C(C)C)C(=O)N[C@@H](CC(C)C)C(=O)N[C@@H](C)C(=O)N[C@@H](C)C(=O)N[C@@H](CC(C)C)C(=O)N1CCC[C@H]1C(N)=O [^natIn-DOTA-ABD-RM26, metal not drawn]
IC50 ([2]; 10-fold molar excess of HSA, read-out: half-maximal inhibitory concentration (IC50) in the presence of HSA): 49 ± 5 nM
IC50 ([2]; without HSA, read-out: half-maximal inhibitory concentration (IC50)): 30 ± 3 nM

Compound: CC[C@H](C)[C@H](NC(=O)[C@H](Cc1c[nH]cn1)NC(=O)[C@H](CC(C)C)NC(=O)[C@H](CCCCN)NC(=O)[C@H](CC(C)C)NC(=O)[C@H](C)NC(=O)[C@H](CCC(=O)O)NC(=O)[C@@H](NC(=O)CNC(=O)[C@H](CCC(=O)O)NC(=O)[C@@H](NC(=O)[C@@H](NC(=O)[C@H](CCCCN)NC(=O)[C@H](C)NC(=O)[C@H](CCCCN)NC(=O)[C@H](CC(N)=O)NC(=O)[C@@H](NC(=O)[C@H](CC(C)C)NC(=O)[C@H](CCCNC(=N)N)NC(=O)[C@H](CCCCN)NC(=O)[C@H](Cc1ccc(O)cc1)NC(=O)[C@H](Cc1ccccc1)NC(=O)[C@H](CC(=O)O)NC(=O)[C@H](CO)NC(=O)[C@@H](NC(=O)CNC(=O)[C@H](Cc1ccc(O)cc1)NC(=O)[C@H](CCCCNC(=O)CSCCC(=O)NCCOCCOCCOCCOCCC(=O)N[C@H](Cc1ccccc1)C(=O)N[C@@H](CCC(N)=O)C(=O)N[C@@H](Cc1c[nH]c2ccccc12)C(=O)N[C@@H](C)C(=O)N[C@H](C(=O)NCC(=O)N[C@@H](Cc1c[nH]cn1)C(=O)N[C@@H](CC(C)C)[C@@H](O)CC(=O)N[C@@H](CC(C)C)C(N)=O)C(C)C)NC(=O)[C@H](CC(=O)O)NC(=O)[C@H](CC(C)C)NC(=O)[C@H](CCC(=O)O)NC(=O)[C@H](CCCNC(=N)N)NC(=O)[C@H](CC(N)=O)NC(=O)[C@H](C)NC(=O)[C@H](CC(C)C)NC(=O)[C@@H](NC(=O)[C@H](CCCCN)NC(=O)[C@H](C)NC(=O)[C@H](CCC(=O)O)NC(=O)[C@H](C)NC(=O)[C@H](CC(C)C)NC(=O)CN1CCN(CC(=O)O)CCN(CC(=O)O)CCN(CC(=O)O)CC1)C(C)C)C(C)C)[C@@H](C)CC)[C@@H](C)O)C(C)C)C(C)C)C(=O)N[C@@H](CC(C)C)C(=O)N[C@@H](C)C(=O)N[C@@H](C)C(=O)N[C@@H](CC(C)C)C(=O)N1CCC[C@H]1C(N)=O [DOTA-ABD-RM26]
uptake in pancreas, intestines and xenografts, ABD-coupled vs parental RM26 ([3]; 1 h pi, discussion): activity uptake was equal both for ABD-coupled and parental RM26
kidney uptake vs tumor uptake ([3]; all studied time points, 1-144 h pi): higher than that in tumors at all studied time points
uptake in liver and bone ([3]; up to 144 h pi): elevated up to 144 h pi

Compound: AMALAEAKVLANRELDKYGVSDFYKRLINKAKTVEGVEALKLHILAALP [ABD035, recombinant control protein, reference compound]
melting temperature (Tm) [4]: 54 °C

tissue uptake at 1 h [5]: 0.27 ± 0.04 %ID/g
Compound: CC(C)C[C@H](NC(=O)C[C@H](O)[C@H](CC(C)C)NC(=O)[C@H](Cc1c[nH]cn1)NC(=O)CNC(=O)[C@@H](NC(=O)[C@H](C)NC(=O)[C@H](Cc1c[nH]c2ccccc12)NC(=O)[C@H](CCC(N)=O)NC(=O)[C@@H](Cc1ccccc1)NC(=O)COCCOCCNC(=O)CN1CCN(CC(=O)O)CCN(CC(=O)O)CCN(CC(=O)O)CC1)C(C)C)C(N)=O [[^111In]In-DOTA-RM26, metal not drawn, reference compound]
pancreas and tumor uptake, [^111In]In-DOTA-ABD-RM26 vs [^111In]In-DOTA-RM26 ([3]; 1 h pi): on the same level for both radiolabelled conjugates

Compound: CC[C@H](C)[C@H](NC(=O)[C@H](Cc1c[nH]cn1)NC(=O)[C@H](CC(C)C)NC(=O)[C@H](CCCCN)NC(=O)[C@H](CC(C)C)NC(=O)[C@H](C)NC(=O)[C@H](CCC(=O)O)NC(=O)[C@@H](NC(=O)CNC(=O)[C@H](CCC(=O)O)NC(=O)[C@@H](NC(=O)[C@@H](NC(=O)[C@H](CCCCN)NC(=O)[C@H](C)NC(=O)[C@H](CCCCN)NC(=O)[C@H](CC(N)=O)NC(=O)[C@@H](NC(=O)[C@H](CC(C)C)NC(=O)[C@H](CCCNC(=N)N)NC(=O)[C@H](CCCCN)NC(=O)[C@H](Cc1ccc(O)cc1)NC(=O)[C@H](Cc1ccccc1)NC(=O)[C@H](CC(=O)O)NC(=O)[C@H](CO)NC(=O)[C@@H](NC(=O)CNC(=O)[C@H](Cc1ccc(O)cc1)NC(=O)[C@H](CCCCNC(=O)CCl)NC(=O)[C@H](CC(=O)O)NC(=O)[C@H](CC(C)C)NC(=O)[C@H](CCC(=O)O)NC(=O)[C@H](CCCNC(=N)N)NC(=O)[C@H](CC(N)=O)NC(=O)[C@H](C)NC(=O)[C@H](CC(C)C)NC(=O)[C@@H](NC(=O)[C@H](CCCCN)NC(=O)[C@H](C)NC(=O)[C@H](CCC(=O)O)NC(=O)[C@H](C)NC(=O)[C@H](CC(C)C)NC(=O)CN1CCN(CC(=O)O)CCN(CC(=O)O)CCN(CC(=O)O)CC1)C(C)C)C(C)C)[C@@H](C)CC)[C@@H](C)O)C(C)C)C(C)C)C(=O)N[C@@H](CC(C)C)C(=O)N[C@@H](C)C(=O)N[C@@H](C)C(=O)N[C@@H](CC(C)C)C(=O)N1CCC[C@H]1C(N)=O [DOTA-ABD-Cl]
CD spectrum pattern ([6]; 20 °C, 0.2 mg/mL, 20 mM potassium phosphate with 100 mM KCl pH 7.4): characteristic alpha-helical pattern
helicity ([6]; from MRE222, 20 °C, 0.2 mg/mL, 20 mM potassium phosphate with 100 mM KCl pH 7.4, helix-coil theory): approximately 60%
residues in helical conformation ([6]; from MRE222, 20 °C, pH 7.4, out of 49 (ABD035), 46 (DOTA-ABD-Cl), 56 (ABD-RM26) residues): 27 residues
melting temperature (Tm) ([4]; CD, 0.2 mg/mL in 20 mM potassium phosphate, 100 mM KCl, estimated (only roughly for DOTA-ABD-RM26)): 50 °C
